Test results as given in ChEMBL document CHEMBL5518226, “A Vancomycin-Templated DNA-Encoded Library for Combating Drug-Resistant Bacteria” (2024).
≈ marks a conversion by molar mass, not a printed value.

What was measured:
Format in all cases: functional
[1] = tested on: Staphylococcus aureus; assay: Antibacterial activity against methicillin sensitive Staphylococcus aureus Newman assessed as inhibition of bacterial growth incubated for 24 hrs by CLSI protocol based broth microdilution method
[2] = tested on: Staphylococcus aureus; assay: Antibacterial activity against methicillin sensitive Staphylococcus aureus clinical isolate 20-45 assessed as inhibition of bacterial growth incubated for 24 hrs by CLSI protocol based broth microdilution method
[3] = tested on: Staphylococcus aureus; assay: Antibacterial activity against methicillin sensitive Staphylococcus aureus ATCC29213 assessed as inhibition of bacterial growth incubated for 24 hrs by CLSI protocol based broth microdilution method
[4] = tested on: Staphylococcus aureus; assay: Antibacterial activity against methicillin resistant Staphylococcus aureus USA300 assessed as inhibition of bacterial growth incubated for 24 hrs by CLSI protocol based broth microdilution method
[5] = tested on: Staphylococcus aureus; assay: Antibacterial activity against vancomycin-intermediate resistant Staphylococcus aureus ATCC700699 assessed as inhibition of bacterial growth incubated for 24 hrs by CLSI protocol based broth microdilution method
[6] = tested on: Staphylococcus epidermidis; assay: Antibacterial activity against methicillin sensitive Staphylococcus epidermidis clinical isolate 20-1 assessed as inhibition of bacterial growth incubated for 24 hrs by CLSI protocol based broth microdilution method
[7] = tested on: Staphylococcus epidermidis; assay: Antibacterial activity against methicillin resistant Staphylococcus epidermidis clinical isolate 20-1 assessed as inhibition of bacterial growth incubated for 24 hrs by CLSI protocol based broth microdilution method
[8] = tested on: Enterococcus faecalis; assay: Antibacterial activity against Enterococcus faecalis clinical isolate 20-11 assessed as inhibition of bacterial growth incubated for 24 hrs by CLSI protocol based broth microdilution method
[9] = tested on: Enterococcus faecalis; assay: Antibacterial activity against vancomycin resistant Enterococcus faecalis clinical isolate 20-1 assessed as inhibition of bacterial growth incubated for 24 hrs by CLSI protocol based broth microdilution method
[10] = tested on: Enterococcus faecium; assay: Antibacterial activity against Enterococcus faecium clinical isolate 20-15 assessed as inhibition of bacterial growth incubated for 24 hrs by CLSI protocol based broth microdilution method
[11] = tested on: Enterococcus faecium; assay: Antibacterial activity against Enterococcus faecium clinical isolate 20-16 assessed as inhibition of bacterial growth incubated for 24 hrs by CLSI protocol based broth microdilution method
[12] = tested on: Streptococcus pneumoniae; assay: Antibacterial activity against penicillin susceptible Streptococcus pneumoniae clinical isolate 20-1 assessed as inhibition of bacterial growth incubated for 24 hrs by CLSI protocol based broth microdilution method
[13] = tested on: Streptococcus pneumoniae; assay: Antibacterial activity against Streptococcus pneumoniae ATCC49619 assessed as inhibition of bacterial growth incubated for 24 hrs by CLSI protocol based broth microdilution method
[14] = tested on: Enterococcus faecium; assay: Antibacterial activity against vancomycin-resistant Enterococcus faecium 0649 assessed as reduction in bacterial growth by measuring fold change at 0.0625 to 64 ug/ml incubated for 24 hrs by CLSI protocol based broth microdilution method relative to vancomycin; conditions: dose 0.0625-64 µg/ml
[15] = tested on: Staphylococcus aureus; assay: Antibacterial activity against vancomycin-intermediate resistant Staphylococcus aureus Mu50 assessed as reduction in bacterial growth by measuring fold change at 0.0625 to 64 ug/ml incubated for 24 hrs by CLSI protocol based broth microdilution method relative to vancomycin; conditions: dose 0.0625-64 µg/ml
[16] = tested on: Staphylococcus aureus; assay: Antibacterial activity against methicillin resistant Staphylococcus aureus clinical isolate 20-34 assessed as inhibition of bacterial growth incubated for 24 hrs by CLSI protocol based broth microdilution method

| SMILES | MIC [1] | MIC [2] | MIC [3] | MIC [4] | MIC [5] | MIC [6] | MIC [7] | MIC [8] | MIC [9] | MIC [10] | MIC [11] | MIC [12] | MIC [13] | fold change (FC) [14] | fold change (FC) [15] | MIC [16] |
| --- | --- | --- | --- | --- | --- | --- | --- | --- | --- | --- | --- | --- | --- | --- | --- | --- |
| CN[C@H](CC(C)C)C(=O)N[C@H]1C(=O)N[C@@H](CC(N)=O)C(=O)N[C@H]2C(=O)N[C@H]3C(=O)N[C@H](C(=O)N[C@H](C(=O)O)c4cc(O)cc(O)c4-c4cc3ccc4O)[C@H](O)c3ccc(c(Cl)c3)Oc3cc2cc(c3O[C@@H]2O[C@H](CO)[C@@H](O)[C@H](O)[C@H]2O[C@H]2C[C@](C)(NCc3ccc(Oc4ccccc4)cc3)[C@H](O)[C@H](C)O2)Oc2ccc(cc2Cl)[C@H]1O | ≤ 0.06 µg/mL | ≤ 0.03 µg/mL | ≤ 0.03 µg/mL | ≤ 0.06 µg/mL | 0.5 µg/mL (≈ 0.306 µM) | 0.125 µg/mL (≈ 0.0766 µM) | 0.25 µg/mL (≈ 0.153 µM) | ≤ 0.03 µg/mL | 8 µg/mL (≈ 4.9 µM) | ≤ 0.03 µg/mL | ≤ 0.03 µg/mL | ≤ 0.03 µg/mL | ≤ 0.03 µg/mL | 16 | 8 |  |
| CN[C@H](CC(C)C)C(=O)N[C@H]1C(=O)N[C@@H](CC(N)=O)C(=O)N[C@H]2C(=O)N[C@H]3C(=O)N[C@H](C(=O)N[C@H](C(=O)O)c4cc(O)cc(O)c4-c4cc3ccc4O)[C@H](O)c3ccc(c(Cl)c3)Oc3cc2cc(c3O[C@@H]2O[C@H](CO)[C@@H](O)[C@H](O)[C@H]2O[C@H]2C[C@](C)(NCCCc3cn(-c4ccc(OC(F)F)cc4)nn3)[C@H](O)[C@H](C)O2)Oc2ccc(cc2Cl)[C@H]1O |  |  |  |  |  |  |  |  |  |  |  |  |  | 8 | 8 |  |
| CN[C@H](CC(C)C)C(=O)N[C@H]1C(=O)N[C@@H](CC(N)=O)C(=O)N[C@H]2C(=O)N[C@H]3C(=O)N[C@H](C(=O)N[C@H](C(=O)O)c4cc(O)cc(O)c4-c4cc3ccc4O)[C@H](O)c3ccc(c(Cl)c3)Oc3cc2cc(c3O[C@@H]2O[C@H](CO)[C@@H](O)[C@H](O)[C@H]2O[C@H]2C[C@](C)(NCc3ccc(-c4ccc(C(F)(F)F)cc4)cc3)[C@H](O)[C@H](C)O2)Oc2ccc(cc2Cl)[C@H]1O |  |  |  |  |  |  |  |  |  |  |  |  |  | 16 | 8 |  |
| CN[C@H](CC(C)C)C(=O)N[C@H]1C(=O)N[C@@H](CC(N)=O)C(=O)N[C@H]2C(=O)N[C@H]3C(=O)N[C@H](C(=O)N[C@H](C(=O)O)c4cc(O)cc(O)c4-c4cc3ccc4O)[C@H](O)c3ccc(c(Cl)c3)Oc3cc2cc(c3O[C@@H]2O[C@H](CO)[C@@H](O)[C@H](O)[C@H]2O[C@H]2C[C@](C)(NCCCc3cn(C4CN(C(c5ccccc5)c5ccccc5)C4)nn3)[C@H](O)[C@H](C)O2)Oc2ccc(cc2Cl)[C@H]1O | ≤ 0.015 µg/mL | ≤ 0.03 µg/mL | ≤ 0.03 µg/mL | ≤ 0.015 µg/mL | 0.5 µg/mL (≈ 0.281 µM) | ≤ 0.03 µg/mL |  | 0.06 µg/mL (≈ 0.0337 µM) | 8 µg/mL (≈ 4.5 µM) | ≤ 0.03 µg/mL | ≤ 0.03 µg/mL | ≤ 0.03 µg/mL | ≤ 0.03 µg/mL | 8 | 8 |  |
| CN[C@H](CC(C)C)C(=O)N[C@H]1C(=O)N[C@@H](CC(N)=O)C(=O)N[C@H]2C(=O)N[C@H]3C(=O)N[C@H](C(=O)N[C@H](C(=O)O)c4cc(O)cc(O)c4-c4cc3ccc4O)[C@H](O)c3ccc(c(Cl)c3)Oc3cc2cc(c3O[C@@H]2O[C@H](CO)[C@@H](O)[C@H](O)[C@H]2O[C@H]2C[C@](C)(NCc3ccc(C#Cc4ccccc4)cc3)[C@H](O)[C@H](C)O2)Oc2ccc(cc2Cl)[C@H]1O | ≤ 0.06 µg/mL | ≤ 0.015 µg/mL | ≤ 0.015 µg/mL | ≤ 0.06 µg/mL | 0.125 µg/mL (≈ 0.0762 µM) | ≤ 0.015 µg/mL |  | ≤ 0.015 µg/mL | 4 µg/mL (≈ 2.44 µM) | ≤ 0.015 µg/mL | ≤ 0.015 µg/mL | ≤ 0.015 µg/mL | ≤ 0.015 µg/mL | 16 | 8 | 1 µg/mL (≈ 0.61 µM) |
| CN[C@H](CC(C)C)C(=O)N[C@H]1C(=O)N[C@@H](CC(N)=O)C(=O)N[C@H]2C(=O)N[C@H]3C(=O)N[C@H](C(=O)N[C@H](C(=O)O)c4cc(O)cc(O)c4-c4cc3ccc4O)[C@H](O)c3ccc(c(Cl)c3)Oc3cc2cc(c3O[C@@H]2O[C@H](CO)[C@@H](O)[C@H](O)[C@H]2O[C@H]2C[C@](C)(NCc3ccc(Cl)cc3Cl)[C@H](O)[C@H](C)O2)Oc2ccc(cc2Cl)[C@H]1O |  |  |  |  |  |  |  |  |  |  |  |  |  | 8 |  |  |
| CN[C@H](CC(C)C)C(=O)N[C@H]1C(=O)N[C@@H](CC(N)=O)C(=O)N[C@H]2C(=O)N[C@H]3C(=O)N[C@H](C(=O)N[C@H](C(=O)O)c4cc(O)c(CN(C)Cc5cn(-c6cccc(NC(=O)OC(C)(C)C)c6)nn5)c(O)c4-c4cc3ccc4O)[C@H](O)c3ccc(c(Cl)c3)Oc3cc2cc(c3O[C@@H]2O[C@H](CO)[C@@H](O)[C@H](O)[C@H]2O[C@H]2C[C@](C)(NCc3cccc(-c4cc(F)ccc4F)n3)[C@H](O)[C@H](C)O2)Oc2ccc(cc2Cl)[C@H]1O |  |  |  |  |  |  |  |  |  |  |  |  |  | 8 |  |  |
| CN[C@H](CC(C)C)C(=O)N[C@H]1C(=O)N[C@@H](CC(N)=O)C(=O)N[C@H]2C(=O)N[C@H]3C(=O)N[C@H](C(=O)N[C@H](C(=O)O)c4cc(O)cc(O)c4-c4cc3ccc4O)[C@H](O)c3ccc(c(Cl)c3)Oc3cc2cc(c3O[C@@H]2O[C@H](CO)[C@@H](O)[C@H](O)[C@H]2O[C@H]2C[C@](C)(NCCCc3cn(Cc4ccc(Cl)c(Cl)c4)nn3)[C@H](O)[C@H](C)O2)Oc2ccc(cc2Cl)[C@H]1O | ≤ 0.015 µg/mL | ≤ 0.03 µg/mL | ≤ 0.03 µg/mL | ≤ 0.015 µg/mL | 0.125 µg/mL (≈ 0.0728 µM) | ≤ 0.03 µg/mL | 0.06 µg/mL (≈ 0.0349 µM) | ≤ 0.03 µg/mL | 4 µg/mL (≈ 2.33 µM) | ≤ 0.03 µg/mL | ≤ 0.03 µg/mL | ≤ 0.03 µg/mL | ≤ 0.03 µg/mL | 8 | 8 |  |
| CN[C@H](CC(C)C)C(=O)N[C@H]1C(=O)N[C@@H](CC(N)=O)C(=O)N[C@H]2C(=O)N[C@H]3C(=O)N[C@H](C(=O)N[C@H](C(=O)O)c4cc(O)cc(O)c4-c4cc3ccc4O)[C@H](O)c3ccc(c(Cl)c3)Oc3cc2cc(c3O[C@@H]2O[C@H](CO)[C@@H](O)[C@H](O)[C@H]2O[C@H]2C[C@](C)(NCc3ccc(Oc4cc(Cl)cc(Cl)c4)cc3)[C@H](O)[C@H](C)O2)Oc2ccc(cc2Cl)[C@H]1O | ≤ 0.06 µg/mL | ≤ 0.015 µg/mL | ≤ 0.015 µg/mL | ≤ 0.06 µg/mL | 0.125 µg/mL (≈ 0.0735 µM) | ≤ 0.015 µg/mL |  | ≤ 0.015 µg/mL | 4 µg/mL (≈ 2.35 µM) | ≤ 0.015 µg/mL | 0.03 µg/mL (≈ 0.0176 µM) | ≤ 0.015 µg/mL | ≤ 0.015 µg/mL | 16 | 8 |  |
| CN[C@H](CC(C)C)C(=O)N[C@H]1C(=O)N[C@@H](CC(N)=O)C(=O)N[C@H]2C(=O)N[C@H]3C(=O)N[C@H](C(=O)N[C@H](C(=O)O)c4cc(O)cc(O)c4-c4cc3ccc4O)[C@H](O)c3ccc(c(Cl)c3)Oc3cc2cc(c3O[C@@H]2O[C@H](CO)[C@@H](O)[C@H](O)[C@H]2O[C@H]2C[C@](C)(NCc3ccc(-c4ccccc4)s3)[C@H](O)[C@H](C)O2)Oc2ccc(cc2Cl)[C@H]1O |  |  |  |  |  |  |  |  |  |  |  |  |  | 16 | 8 |  |
| CN[C@H](CC(C)C)C(=O)N[C@H]1C(=O)N[C@@H](CC(N)=O)C(=O)N[C@H]2C(=O)N[C@H]3C(=O)N[C@H](C(=O)N[C@H](C(=O)O)c4cc(O)c(CN(C)Cc5cn(-c6cccc(NC(=O)OC(C)(C)C)c6)nn5)c(O)c4-c4cc3ccc4O)[C@H](O)c3ccc(c(Cl)c3)Oc3cc2cc(c3O[C@@H]2O[C@H](CO)[C@@H](O)[C@H](O)[C@H]2O[C@H]2C[C@](C)(NCc3ccccc3Oc3ccccc3)[C@H](O)[C@H](C)O2)Oc2ccc(cc2Cl)[C@H]1O |  |  |  |  |  |  |  |  |  |  |  |  |  | 8 |  |  |
| CN[C@H](CC(C)C)C(=O)N[C@H]1C(=O)N[C@@H](CC(N)=O)C(=O)N[C@H]2C(=O)N[C@H]3C(=O)N[C@H](C(=O)N[C@H](C(=O)O)c4cc(O)c(CN(C)Cc5cn(-c6cccc(NC(=O)OC(C)(C)C)c6)nn5)c(O)c4-c4cc3ccc4O)[C@H](O)c3ccc(c(Cl)c3)Oc3cc2cc(c3O[C@@H]2O[C@H](CO)[C@@H](O)[C@H](O)[C@H]2O[C@H]2C[C@](C)(NCc3ccccc3-c3ccccc3)[C@H](O)[C@H](C)O2)Oc2ccc(cc2Cl)[C@H]1O |  |  |  |  |  |  |  |  |  |  |  |  |  | 8 |  |  |
| CN[C@H](CC(C)C)C(=O)N[C@H]1C(=O)N[C@@H](CC(N)=O)C(=O)N[C@H]2C(=O)N[C@H]3C(=O)N[C@H](C(=O)N[C@H](C(=O)O)c4cc(O)cc(O)c4-c4cc3ccc4O)[C@H](O)c3ccc(c(Cl)c3)Oc3cc2cc(c3O[C@@H]2O[C@H](CO)[C@@H](O)[C@H](O)[C@H]2O[C@H]2C[C@](C)(NCCCc3cn(-c4cccc(NC(=O)OC(C)(C)C)c4)nn3)[C@H](O)[C@H](C)O2)Oc2ccc(cc2Cl)[C@H]1O |  |  |  |  |  |  |  |  |  |  |  |  |  | 8 | 8 |  |
